In PubChem BioAssay AID652179 (Johns Hopkins Ion Channel Center, 2013):
Calls of active or inactive are those of the source.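 Rule for the calls: active = maximum inhibition above 50% at any tested concentration, with a dose response curve fitted; inactive = no inhibition at any concentration or no dose response curve.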

Target: TRPC4 (transient receptor potential cation channel C4), mouse
Test: TRPC4 channel inhibitors, SAR follow-up, cell-based, concentration-response (AID 652179)
Settings: HEK293 TRPC4/mu-opioid cells, Fluo-4 calcium fluorescence ratio

SMILES	IC50 [µM]
Cc1cc(N2CCC(F)CC2)nc2ccccc12	10.2
Cc1cc(N2CCC(F)(F)CC2)nc2ccccc12	10.6
Cc1cc(N2CCCC(F)C2)nc2ccccc12 (stereo unspecified)	12.6
Cc1cc(N2CCCCC2)nc2ccccc12	1.53

Now from value to molecule:

IC50 [µM]	SMILES
14.9	C[C@H]1CCCN1c1ccc2ccccc2n1
4.61	c1ccc2nc(N3CCCCC3)ccc2c1

Same assay, conditions: HEK293 TRPC4/mu-opioid cells, Fluo-4 calcium fluorescence ratio; at 20 µM (top of the series)

SMILES	fluorescence ratio, lower = inhibition
Cc1cc(N(C)C)nc2ccccc12	inactive
Cc1cc(N2CCC(O)CC2)nc2ccccc12	inactive
FC1(F)CCN(c2ccc3ccccc3n2)CC1	inactive
Cc1cc(-n2cccn2)nc2ccccc12	inactive
Cc1cc(N2CCC(O)C2)nc2ccccc12 (stereo unspecified)	inactive
Cc1cc(-n2ccnc2)nc2ccccc12	inactive
Cc1cc(-n2cccc2)nc2ccccc12	inactive
Cc1cc(N2CCC(=O)CC2)nc2ccccc12	inactive

Second part, the molecule after the results:

fluorescence ratio, lower = inhibition	SMILES
inactive	FC1CCCN(c2ccc3ccccc3n2)C1 (stereo unspecified)
inactive	OC1CCCN(c2ccc3ccccc3n2)C1 (stereo unspecified)
inactive	O=C1CCN(c2ccc3ccccc3n2)CC1
inactive	c1ccc2nc(N3CCCC3)ccc2c1
inactive	FC1CCN(c2ccc3ccccc3n2)CC1
inactive	OC1CCN(c2ccc3ccccc3n2)CC1
inactive	OC1CCN(c2ccc3ccccc3n2)C1 (stereo unspecified)
